This is an account of results in patent publication US9073906B2, “Sulfamide derivative having an adamantyl group and its pharmaceutically acceptable salt” (KOREA RESEARCH INSTITUTE OF CHEMICAL TECHNOLOGY, priority 2011, dated 2015).

The IC50 is the point on the concentration scale where inhibition reaches its midpoint.

The target in one assay is human 11β-HSD-2 (Homo sapiens (Human), UniProt P80365). Kind of assay: HTRF analysis of inhibition of 11β-HSD-2. In kind it is cell-based. The conditions noted are these: human 11β-HSD-2, HTRF.
The next assay addresses human 11β-HSD1 (Homo sapiens (Human), UniProt P28845). Nature of the assay: HTRF cortisol assay in 11β-HSD1 overexpressing CHO cells. In kind it is cell-based. The conditions noted are these: human 11β-HSD1 overexpressing CHO cells, 160 nM cortisone, 3 hr at 37° C., read-out: IC50(nM) to 11β-HSD-1. The protocol: The full-length cDNA molecule coding for human or mouse 11β-HSD1 was inserted into pcDNA (Promega) as mammalian expression vectors and transformed into CHO cells for 5 hr using Lipofectamine plus (Invitrogen) in accordance with manufacturer's manual, followed by stabilization for 48 hr. The CHO cells were incubated with 0.8 μg/ml puromycin (Sigma) once every three days for two weeks to obtain human or mouse 11β-HSD1 overexpressing cells. The cells were grown and frozen, and thawed for enzyme inhibition tests.
The in vitro inhibitory activities of the novel compounds to human 11β-HSD1 were evaluated in accordance with homogenous time-resolved fluorescence (HTRF).
The human or mouse 11β-HSD1 overexpressing cells were subcultured at the number of 2.5×10^4 cells in 96-well plate and stabilized for 24 hr. […] Then, samples of the medium (10 μl) were transferred to 384-well plate and the amounts of cortisol produced were measured using a cortisol kit (Cisbio international) in accordance with manufacturer's instruction. […] Delta F value=(Ratio of compounds−Ratio of negative)/Ratio of negative×100 2. Normalized value=Delta F value of compounds−Delta F value of control 3. % inhibition=Normalized value of compounds/Normalized value of background×100 4.
Background: TR-FRET usually uses a lanthanide donor and a delayed reading to cut background.

SMILES strings stand for the structures.

human 11β-HSD-2, sequence (P80365 whole entry): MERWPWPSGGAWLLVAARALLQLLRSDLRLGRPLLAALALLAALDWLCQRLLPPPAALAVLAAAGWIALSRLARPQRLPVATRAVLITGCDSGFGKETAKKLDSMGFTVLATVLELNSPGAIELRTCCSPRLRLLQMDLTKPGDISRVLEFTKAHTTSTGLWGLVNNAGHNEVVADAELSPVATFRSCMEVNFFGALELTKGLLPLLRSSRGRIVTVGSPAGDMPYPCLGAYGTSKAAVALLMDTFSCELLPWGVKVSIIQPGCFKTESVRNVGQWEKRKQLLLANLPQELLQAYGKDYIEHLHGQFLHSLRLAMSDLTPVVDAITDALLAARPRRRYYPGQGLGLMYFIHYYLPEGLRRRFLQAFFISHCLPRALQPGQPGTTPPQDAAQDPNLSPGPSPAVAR
human 11β-HSD1, sequence (P28845 whole entry): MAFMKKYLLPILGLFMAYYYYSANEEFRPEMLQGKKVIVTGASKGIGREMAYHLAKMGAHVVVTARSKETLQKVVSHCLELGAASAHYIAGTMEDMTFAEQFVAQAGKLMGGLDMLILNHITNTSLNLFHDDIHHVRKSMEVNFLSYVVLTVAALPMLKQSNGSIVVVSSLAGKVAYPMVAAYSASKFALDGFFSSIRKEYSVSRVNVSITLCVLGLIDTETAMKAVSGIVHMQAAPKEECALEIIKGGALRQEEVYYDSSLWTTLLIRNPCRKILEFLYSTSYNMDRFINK

Turning to `CC1CCN(c2c(Cl)cc(Cl)cc2Cl)S(=O)(=O)N1CC(=O)NC1C2CC3CC1CC(C(N)=O)(C3)C2` (centres unmarked) [Compound 128, 4-(2-(3-methyl-1,1-dioxido-6-(2,4,6-trichlorophenyl)-1,2,6-thiadiazinan-2-yl)acetamido) adamantan-1-carboxamide], the half-maximal inhibitory concentration (IC50) was over 10000 nM on human 11β-HSD-2 and 0.1 nM on human 11β-HSD1.

On human 11β-HSD-2, `C[C@H]1CN(CC(=O)NC2C3CC4CC2CC(C(N)=O)(C4)C3)S(=O)(=O)N(c2c(Cl)cc(C(F)(F)F)cc2Cl)C1` (stereo partly drawn) [Compound 195, 4-(2-((S)-6-(2,6-dichloro-4-(trifluoromethyl)phen-yl)-4-methyl-1,1-dioxido-1,2,6-thiadiazinan-2-yl)acetamido)adamantan-1-carboxamide] yielded an IC50 of over 10000 nM. Turning to `NC(=O)C12CC3CC(C1)C(NC(=O)CN1CCCN(c4ccccc4F)S1(=O)=O)C(C3)C2` (centres unmarked) [Compound 59, 4-(2-(6-(2-fluorophenyl)-1,1-dioxido-1,2,6-thiadiazinan-2-yl)-acetamido)adamantan-1-carboxamide], the IC50 against human 11β-HSD-2 was over 10000 nM; on human 11β-HSD1, 14 nM. The like results for `CC1CN(CC(=O)NC2C3CC4CC2CC(C(N)=O)(C4)C3)S(=O)(=O)N(c2c(Cl)cc(C(F)(F)F)cc2Cl)C1` (centres unmarked) [Compound 183, (E) 4-(2-(6-(2,6-dichloro-4-(trifluoromethyl)phenyl)-4-methyl-1,1-dioxido-1,2,6-thiadiazinan-2-yl)acetamido)adamantan-1-carboxamide] were, in that order, over 10000 nM and 4.8 nM.

Compound `NC(=O)[C@]12CC3CC(C1)[C@@H](NC(=O)CN1CC(F)(F)CN(c4c(Cl)cc(Cl)cc4Cl)S1(=O)=O)C(C3)C2` [Compound 172, 4-(2-(4,4-difluoro-1,1-dioxido-6-(2,4,6-trichlorophenyl)-1,2,6-thiadiazinan-2-yl)acetamido)adamantan-1-carboxamide (E form)] showed an IC50 at human 11β-HSD-2 of over 10000 nM. In the case of `CC1(C)CN(CC(=O)NC2C3CC4CC2CC(C(N)=O)(C4)C3)S(=O)(=O)N(c2c(Cl)cc(Cl)cc2Cl)C1` (centres unmarked) [Compound 177, 4-(2-(4,4-dimethyl-1,1-dioxido-6-(2,4,6-trichlorophenyl)-1,2,6-thiadiazinan-2-yl)acetamido)adamantan-1-carboxamide], the concentration for half-maximal inhibition (IC50) was over 10000 nM at human 11β-HSD-2 and 5 nM on human 11β-HSD1.

Consider `C=C1CN(CC(=O)NC2C3CC4CC2CC(C(N)=O)(C4)C3)S(=O)(=O)N(c2c(Cl)cc(Cl)cc2Cl)C1` (centres unmarked) [Compound 175, 4-(2-(4-methylene-1,1-dioxido-6-(2,4,6-trichlorophenyl)-1,2,6-thiadiazinan-2-yl)acetamido)adamantan-1-carboxamide], for which the half-maximal inhibitory concentration (IC50) against human 11β-HSD-2 was over 10000 nM; at human 11β-HSD1, 14 nM. On to `NC(=O)C12CC3CC(C1)C(NC(=O)CN1CCCN(c4c(F)cc(F)cc4F)S1(=O)=O)C(C3)C2` (centres unmarked) [Compound 89, 4-(2-(1,1-dioxido-6-(2,4,6-trifluorophenyl)-1,2,6-thiadiazinan-2-yl)acetamido)adamantan-1-carboxamide], for which the IC50 against human 11β-HSD-2 is over 10000 nM; at human 11β-HSD1, 20 nM. `O=C(CN1CCCN(Cc2ccccc2)S1(=O)=O)NC1C2CC3CC(C2)CC1C3` (centres unmarked) [Compound 5, N-(adamantan-2-yl)-2-(6-benzyl-1,1-dioxido-1,2,6-thiadiazinan-2-yl)acetamide]: the IC50 against human 11β-HSD-2 is over 10000 nM; on human 11β-HSD1, 360 nM. The like results for `CC(C)(C)OC(=O)N1CCCN(CC(=O)NC2C3CC4CC(C3)CC2C4)S1(=O)=O` (centres unmarked) [Compound 3, tert-butyl 6-(2-(adamantan-2-ylamino)-2-oxoethyl)-1,2,6-thiadiazinan-2-carboxylate 1,1-dioxide] were, in that order, over 10000 nM and 363 nM. For `NC(=O)C12CC3CC(C1)C(NC(=O)CN1CCN(c4c(Cl)cc(Cl)cc4Cl)S1(=O)=O)C(C3)C2` (centres unmarked) [Compound 124, 4-(2-(1,1-dioxido-5-(2,4,6-trichlorophenyl)-1,2,5-thiadiazolidin-2-yl)acetamido) adamantan-1-carboxamide], in that order: over 10000 nM and 187 nM. For `NC(=O)C12CC3CC(C1)C(NC(=O)CN1CCCCN(c4c(Cl)cc(Cl)cc4Cl)S1(=O)=O)C(C3)C2` (centres unmarked) [Compound 122, 4-(2-(1,1-dioxido-7-(2,4,6-trichlorophenyl)-1,2,7-thiadiazepane-2-yl)acetamido) adamantan-1-carboxamide], in that order: over 10000 nM and 0.4 nM. `Cc1ccc(N2CCCN(CC(=O)NC3C4CC5CC(C4)CC3C5)S2(=O)=O)cc1` (centres unmarked) [Compound 24, N-(adamantan-2-yl)-2-(1,1-dioxido-6-(p-tolyl)-1,2,6-thiadiazinan-2-yl)acetamide]: the IC50 against human 11β-HSD-2 was over 10000 nM; at human 11β-HSD1, 3370 nM. The like results for `CC1CN(CC(=O)NC2C3CC4CC2CC(C(N)=O)(C4)C3)S(=O)(=O)N(c2c(Cl)cc(Cl)cc2Cl)C1` (centres unmarked) [Compound 156, 4-(2-(4-methyl-1,1-dioxido-6-(2,4,6-trichlorophenyl)-1,2,6-thiadiazinan-2-yl)acetamido)adamantan-1-carboxamide] were, in that order, over 10000 nM and 1 nM. With `NC(=O)C12CC3CC(C1)C(NC(=O)CN1CCCN(c4ccccc4)S1(=O)=O)C(C3)C2` (centres unmarked) [Compound 60, 4-(2-(1,1-dioxido-6-phenyl-1,2,6-thiadiazinan-2-yl)acetamido)adamantan-1-carboxamide], the half-inhibitory concentration (IC50) at human 11β-HSD-2 was over 10000 nM; at human 11β-HSD1, 17 nM. For `O=C(CN1CCCN(c2ccccc2)S1(=O)=O)NC1C2CC3CC(C2)CC1C3` (centres unmarked) [Compound 2, N-(adamantan-2-yl)-(1,1-dioxido-6-phenyl-1,2,6-thiadiazinan-2-yl)acetamide], in that order: over 10000 nM and 12 nM.

As to `C[C@@H]1CN(CC(=O)NC2C3CC4CC2CC(C(N)=O)(C4)C3)S(=O)(=O)N(c2c(Cl)cc(C(F)(F)F)cc2Cl)C1` (stereo partly drawn) [Compound 196, 4-(2-((R)-6-(2,6-dichloro-4-(trifluoromethyl)phen-yl)-4-methyl-1,1-dioxido-1,2,6-thiadiazinan-2-yl)acetamido)adamantan-1-carboxamide], the half-maximal inhibitory concentration (IC50) on human 11β-HSD-2 was over 10000 nM; on human 11β-HSD1 it was 1.3 nM.

As to `O=C(CN1CCCN(Cc2ccccc2F)S1(=O)=O)NC1C2CC3CC(C2)CC1C3` (centres unmarked) [Compound 14, N-(adamantan-2-yl)-2-(6-(2-fluorobenzyl)-1,1-dioxido-1,2,6-thiadiazinan-2-yl)acetamide], the 50% inhibitory concentration (IC50) against human 11β-HSD-2 is over 10000 nM; on human 11β-HSD1, 1660 nM. For `NC(=O)C12CC3CC(C1)C(NC(=O)CN1CCCN(c4c(Cl)cc(Cl)cc4Cl)S1(=O)=O)C(C3)C2` (centres unmarked) [Compound 88, 4-(2-(1,1-dioxido-6-(2,4,6-trichlorophenyl)-1,2,6-thiadiazinan-2-yl)acetamido)adamantan-1-carboxamide], in that order: over 10000 nM and 0.2 nM. The like results for `CN(CC(=O)NC1C2CC3CC1CC(C(N)=O)(C3)C2)S(=O)(=O)N(C)c1c(Cl)cc(Cl)cc1Cl` (centres unmarked) [Compound 123, 4-(2-(methyl(N-methyl-N-(2,4,6-trichlorophenyl)sulfa-moyl)amino)acetamido) adamantan-1-carboxamide] were, in that order, over 10000 nM and 0.8 nM. Consider `NC(=O)C12CC3CC(C1)C(NC(=O)CN1CCCN(c4cccc(F)c4)S1(=O)=O)C(C3)C2` (centres unmarked) [Compound 69, 4-(2-(6-(3-fluorophenyl)-1,1-dioxido-1,2,6-thiadiazinan-2-yl)acetamido)adamantan-1-carboxamide], for which the IC50 against human 11β-HSD-2 was over 10000 nM; at human 11β-HSD1, 3 nM. On to `NC(=O)C12CC3CC(C1)C(NC(=O)CN1CC4(CC4)CN(c4c(Cl)cc(Cl)cc4Cl)S1(=O)=O)C(C3)C2` (centres unmarked) [Compound 176, 4-(2-(6,6-dioxido-7-(2,4,6-trichlorophenyl)-6-thia-5,7-diazaspiro[2,5]octane-5-yl)acetamido)adamantan-1-carboxamide], for which the IC50 was over 10000 nM against human 11β-HSD-2 and 5 nM at human 11β-HSD1.

Turning to `NC(=O)C12CC3CC(C1)C(NC(=O)CN1CCCN(c4ccc(F)cc4)S1(=O)=O)C(C3)C2` (centres unmarked) [Compound 44, 4-(2-(6-(4-fluorophenyl)-1,1-dioxido-1,2,6-thiadiazinan-2-yl)acetamido)adamantan-1-carboxamide], the half-inhibitory concentration (IC50) is over 10000 nM against human 11β-HSD-2 and 79 nM on human 11β-HSD1.
